Measured values published in US20240246984A1, “HETEROCYCLIC JAK INHIBITOR” (BEIJING INNOCARE PHARMA TECH CO., LTD., priority 2020, published 2024).

Key:
[1] = target: human recombinant TYK2 protein (Homo sapiens, UniProt P29597); assay: TYK2 activity inhibition assay (HTRF kinase detection); type: biochemical; settings: 11.25 μM ATP substrate solution
Description: The effect of the compounds of the present invention on the activity of TYK2 was assessed by using an in vitro kinase detection assay.
The enzymatic activity of TYK2 was assessed by detecting the substrate phosphorylation level in a kinase reaction with a homogeneous time-resolved fluorescence (HTRF) kinase detection kit (Cisbio, 62TK0PEC). A reaction buffer contained an enzyme buffer (1×), 5 mM MgCl2, 1 mM DTT and 0.01% Brij35 from the kit; a human recombinant TYK2 protein (Carna Biosciences, 08-147) was diluted to a kinase reaction solution of 0.25 ng/μL with the reaction buffer; a substrate reaction solution contained 11.25 μM ATP and a biotin-labeled tyrosine kinase substrate diluted to 0.5 μM with the reaction buffer; a detection buffer contained 0.1 ng/μL Eu^3+ labeled cage antibody (Cisbio, 61T66KLB) and 25 nM streptavidin-labeled XL665 (Cisbio, 610SAXLB) in the reaction buffer; the compound was dissolved to 10 μM in DMSO, followed by a serial 4-fold dilution with DMSO to a minimum concentration of 0.061 nM. Each concentration was further diluted 40-fold with the reaction buffer. To a 384-well assay plate (Corning, 3674) were added 4 μL of the compound solutions having a series of concentrations and 2 μL of kinase reaction solutions. After being mixed evenly, the mixtures were incubated at room temperature for 15 minutes, and then 4 μL of the substrate reaction solutions were added. The reaction mixtures were incubated at room temperature for 40 minutes. Then the reaction mixtures were added with 10 μL of detection solutions, mixed evenly, and allowed to stand at room temperature for 30 minutes. An Envision plate reader (Perkin Elmer) was then used to measure the progress of the reaction at wavelengths of 620 nm and 665 nm. The signal value (absorbance at 665 nm/absorbance at 620 nm) was positively correlated with the degree of substrate phosphorylation, therefore the kinase activity of TYK2 was detected. In this assay, the group without TYK2 kinase protein was the 100% inhibition group, and the group with TYK2 kinase protein but without the test compound was the 0% inhibition group. The compound inhibition curve was plotted using XLfit software and the IC50 of its inhibition was calculated.

[2] = target: human recombinant JAK2 protein (Homo sapiens, UniProt O60674); assay: JAK2 activity inhibition assay (HTRF kinase detection); type: biochemical; settings: 2.5 μM ATP substrate solution
Description: The effect of the compounds of the present invention on the activity of JAK2 was assessed by using an in vitro kinase detection assay.
The enzymatic activity of JAK2 was assessed by detecting the substrate phosphorylation level in a kinase reaction with a homogeneous time-resolved fluorescence (HTRF) kinase detection kit (Cisbio, 62TK0PEC). A reaction buffer contained an enzyme buffer (1×), 5 mM MgCl2, 1 mM DTT and 0.01% Brij35 from the kit; a human recombinant JAK2 protein (Carna Biosciences, 08-045) was diluted to a kinase reaction solution of 0.15 ng/μL with the reaction buffer; a substrate reaction solution contained 2.5 μM ATP and a biotin-labeled tyrosine kinase substrate diluted to 0.25 μM with the reaction buffer; a detection buffer contained 0.1 ng/μL Eu^3+ labeled cage antibody (Cisbio, 61T66KLB) and 12.5 nM streptavidin-labeled XL665 (Cisbio, 610SAXLB) in the reaction buffer; the compound was dissolved to 10 μM in DMSO, followed by a serial 4-fold dilution with DMSO to a minimum concentration of 0.061 nM. Each concentration was further diluted 40-fold with the reaction buffer. To a 384-well assay plate (Corning, 3674) were added 4 μL of the compound solutions having a series of concentrations and 2 μL of JAK2 kinase reaction solutions. After being mixed evenly, the mixtures were incubated at room temperature for 15 minutes, and then 4 μL of the substrate reaction solutions were added. The reaction mixtures were incubated at room temperature for 30 minutes. Then the reaction mixtures were added with 10 μL of detection solutions, mixed evenly, and allowed to stand at room temperature for 30 minutes. An Envision plate reader (Perkin Elmer) was then used to measure the progress of the reaction at wavelengths of 620 nm and 665 nm. The signal value (absorbance at 665 nm/absorbance at 620 nm) was positively correlated with the degree of substrate phosphorylation, therefore the kinase activity of JAK2 was detected. In this assay, the group without JAK2 kinase protein was the 100% inhibition group, and the group with JAK2 kinase protein but without the test compound was the 0% inhibition group. The compound inhibition curve was plotted using XLfit software and the IC50 of its inhibition was calculated.

SMILES | IC50 [1] | IC50 [2]
O=C(c1cccc(Nc2nc(-c3c(F)cccc3F)n3cc[nH]c(=O)c23)c1)N1CCOCC1 [Compound 22, 3-(2,6-difluorophenyl)-1-((3-(morpholine-4-carbonyl)phenyl)amino)imidazo[1,5-a]pyrazin-8(7H)-one] | 3.3 nM | 3.9 nM
O=C1NCCn2c(-c3c(F)cccc3F)nc(Nc3cnn(CC(=O)N4CCOCC4)c3)c21 [Compound 24, 3-(2,6-difluorophenyl)-1-((1-(2-morpholino-2-oxoethyl)-1H-pyrazol-4-yl)amino)-6,7-dihydroimidazo[1,5-a]pyrazin-8(5H)-one] | 3.2 nM | 42 nM
Cn1ccc(Nc2nc(-c3c(F)cccc3F)n3cc[nH]c(=O)c23)n1 [Compound 7, 3-(2,6-difluorophenyl)-1-((1-methyl-1H-pyrazol-3-yl)amino)imidazo[1,5-a]pyrazin-8(7H)-one] | 20 nM | 62 nM
Cn1ccc(Nc2nc(-c3c(F)cccc3F)n3c2C(=O)NCC3)n1 [Compound 8, 3-(2,6-difluorophenyl)-1-((1-methyl-1H-pyrazol-3-yl)amino)-6,7-dihydroimidazo[1,5-a]pyrazin-8(5H)-one] | 220 nM | –
CN1CCN(C(=O)Cn2cc(Nc3nc(-c4c(F)cccc4F)n4c3C(=O)NCC4)cn2)CC1 [Compound 25, 3-(2,6-difluorophenyl)-1-((1-(2-(4-methylpiperazin-1-yl)-2-oxoethyl)-1H-pyrazol-4-yl)amino)-6,7-dihydroimidazo[1,5-a]pyrazin-8(5H)-one] | 5.1 nM | 39 nM
O=c1[nH]ccn2c(-c3c(F)cccc3F)nc(Nc3ccc(N4CCOCC4)cn3)c12 [Compound 9, 3-(2,6-difluorophenyl)-1-((5-morpholinopyridin-2-yl)amino)imidazo[1,5-a]pyrazin-8(7H)-one] | 7 nM | 13 nM
CC(=O)N1CCC(c2nc(Nc3ccc(C(=O)N4CCOCC4)cc3)c3c(=O)[nH]ccn23)CC1 [Compound 19, 3-(1-acetylpiperidin-4-yl)-1-((4-(morpholine-4-carbonyl)phenyl)amino)imidazo[1,5-a]pyrazin-8(7H)-one] | 23 nM | 14 nM
O=C(c1ccc(Nc2nc(C3CCNCC3)n3cc[nH]c(=O)c23)cc1)N1CCOCC1 [Compound 20, 1-((4-(morpholine-4-carbonyl)phenyl)amino)-3-(piperidin-4-yl)imidazo[1,5-a]pyrazin-8(7H)-one] | 37 nM | 53 nM
O=C(c1ccc(Nc2nc(C3CCN(C4CC4)CC3)n3cc[nH]c(=O)c23)cc1)N1CCOCC1 [Compound 21, 3-(1-cyclopropylpiperidin-4-yl)-1-((4-(morpholine-4-carbonyl)phenyl)amino)imidazo[1,5-a]pyrazin-8(7H)-one] | 12 nM | 12 nM
O=C1NCCn2c(-c3c(F)cccc3F)nc(Nc3cccc(C(=O)N4CCOCC4)c3)c21 [Compound 23, 3-(2,6-difluorophenyl)-1-((3-(morpholine-4-carbonyl)phenyl)amino)-6,7-dihydroimidazo[1,5-a]pyrazin-8(5H)-one] | 50 nM | 29 nM
